Laboratory results taken from article PMC7689791 (Journal of Clinical Pharmacology, 2020).

Assay: Observed incidence of treatment-emergent adverse events in clinical studies
Settings: studies 202, 303, 304; 5 to 15 mg

Cc1ncc(OC[C@@]2(c3cccc(F)c3)C[C@H]2C(=O)Nc2ccc(F)cn2)c(C)n1 [Lemborexant]
Flu/influenza frequency, active treatment: 4.0%
